This note sets out measurements from ChEMBL document CHEMBL1137320, “A novel class of carbonic anhydrase inhibitors: glycoconjugate benzene sulfonamides prepared by "click-tailing"” (J Med Chem, 2006).

The structures appear in SMILES notation.

The target of the test is Carbonic anhydrase 9 (Homo sapiens, UniProt Q16790).
On to `NS(=O)(=O)c1ccc(C(=O)OCc2cn([C@@H]3O[C@H](CO)[C@@H](O)[C@H](O)[C@H]3O)nn2)cc1`, for which the Ki was 183 nM. With `NS(=O)(=O)c1ccc(C(=O)OCc2cn([C@@H]3O[C@H](CO)[C@H](O)[C@H](O)[C@H]3O)nn2)cc1` the figure was 65 nM; with `NS(=O)(=O)c1ccc(C(=O)OCc2cn([C@@H]3OC[C@@H](O)[C@@H](O)[C@@H]3O)nn2)cc1`, 96 nM.

Consider `CC(=O)OC[C@H]1O[C@@H](n2cc(CNC(=O)c3ccc(S(N)(=O)=O)cc3)nn2)[C@H](OC(C)=O)[C@@H](OC(C)=O)[C@H]1OC(C)=O`, for which the Ki worked out at 76 nM. With `NS(=O)(=O)c1ccc(C(=O)NCc2cn([C@@H]3O[C@H](CO)[C@@H](O)[C@H](O)[C@H]3O)nn2)cc1` the figure was 442 nM; with `CC(=O)OC[C@H]1O[C@@H](n2cc(COC(=O)c3ccc(S(N)(=O)=O)cc3)nn2)[C@H](OC(C)=O)[C@@H](OC(C)=O)[C@@H]1O[C@H]1O[C@H](COC(C)=O)[C@@H](OC(C)=O)[C@H](OC(C)=O)[C@H]1OC(C)=O`, 130 nM; with `COC(=O)[C@H]1O[C@@H](n2cc(CNC(=O)c3ccc(S(N)(=O)=O)cc3)nn2)[C@H](OC(C)=O)[C@@H](OC(C)=O)[C@@H]1OC(C)=O`, 471 nM. `COC(=O)[C@H]1O[C@@H](n2cc(COC(=O)c3ccc(S(N)(=O)=O)cc3)nn2)[C@H](O)[C@@H](O)[C@@H]1O`: the Ki worked out at 241 nM. Take `CO[C@H]1O[C@H](Cn2cc(CNC(=O)c3ccc(S(N)(=O)=O)cc3)nn2)[C@@H](O)[C@H](O)[C@H]1O`: affinity was put at a Ki of 204 nM.

`C#CCOC(=O)c1ccc(S(N)(=O)=O)cc1` came in with a Ki of 104 nM.

`CC(=O)OC[C@H]1O[C@@H](n2cc(CNC(=O)c3ccc(S(N)(=O)=O)cc3)nn2)[C@H](OC(C)=O)[C@@H](OC(C)=O)[C@@H]1OC(C)=O` showed a Ki of 430 nM. `CC(=O)N[C@@H]1[C@@H](OC(C)=O)[C@H](OC(C)=O)[C@@H](COC(C)=O)O[C@H]1n1cc(COC(=O)c2ccc(S(N)(=O)=O)cc2)nn1` registered a Ki of 1200 nM.

By Ki is commonly meant the dissociation constant of the complex between target and ligand, obtained from inhibition or displacement. Read a low Ki as higher affinity.
